Our source for the GI50 and TGI values is PubChem BioAssay (NCI).

What all share (test): NCI-60 cell line screen, 48 h
Experiment [1] deals with SF-268 CNS.
Experiment [2] deals with KM12 colon.
In experiment [3] the test system is LOX IMVI melanoma.
The subject of experiment [4] is RPMI-8226 leukemia.
In experiment [5] the test system is MALME-3M melanoma.
For experiment [6], the system named is CCRF-CEM leukemia.
The subject of experiment [7] is UACC-62 melanoma.
The test system of experiment [8] is NCI-H460 lung.
In experiment [9] the test system is NCI-H226 lung.

SMILES strings stand for the structures.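 Exposure lasted 48 hours, with cells grown in 96-well plates and compounds tested at five concentrations. GI50 = concentration required for 50% inhibition of growth. The concentration for full growth arrest is given as TGI.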

On to `N.N.N.N.N.N#Cc1nn[n-]n1.[Cl-].[Co+3]`, for which the GI50 in [1], in experiment [2], in experiment [3], in experiment [4], in experiment [5] and in experiment [6] was over 100 µM each time. For the same compound, the GI50 in experiment [7] and in [8] was over 100 µM in each case. For the same compound, the TGI in experiment [1], in experiment [2], in experiment [3], in experiment [4], in experiment [5] and in [6] was over 100 µM in each case. The TGI in experiment [7] and in experiment [8] was over 100 µM in each case.

Turning to `Cn1cnc([N+](=O)[O-])c1Sc1nc2ccccc2o1`, the TGI is 14.4 µM in [1]; 20.5 µM in [2]; 26.1 µM in experiment [3]; 22.5 µM in [4]; 30.9 µM in [9]; 16.6 µM in experiment [5]. Besides, the TGI in [6] was 12.8 µM; in experiment [7] it was 25.5 µM; in [8] it was over 71.6 µM.

Take `COc1ccc(CN2C(=O)/C(=C\C(=O)c3ccc(OCCN4CCCC4)cc3)c3ccccc32)cc1`: the GI50 is 13.2 µM in experiment [1]; 11.1 µM in [2]; 2.54 µM in experiment [4]; 20.8 µM in experiment [9]; 1.75 µM in experiment [5]; 3.34 µM in [6]. Moreover, the values for the GI50 in experiment [7] and in experiment [8] were 1.84 µM and 2.03 µM, respectively. Moreover, the TGI came to 42.7 µM in experiment [1]; 34.7 µM in experiment [2]; 6.29 µM in experiment [4]; 52.9 µM in experiment [9]; 3.35 µM in experiment [5]; 32.2 µM in experiment [6]. In addition, the values for the TGI in experiment [7] and in experiment [8] were 3.38 µM and 3.8 µM, respectively.

Consider `O=C(Nc1ccccc1)n1cc(-c2ccccn2)c(N2CCOCC2)n1`, for which the TGI in [1] is over 100 µM; in [2], 62.7 µM; in experiment [3], over 100 µM; in [4], over 100 µM; in experiment [9], over 100 µM; in [5], 8.78 µM. Further, the TGI in [6], in experiment [7] and in experiment [8] was over 100 µM in each case.

Take `Cc1ccccc1C=NC12CC3CC(CC(C3)C1)C2`: the TGI in experiment [1], in experiment [2], in experiment [3], in [4], in [9] and in experiment [5] was over 100 µM throughout. Moreover, the TGI in experiment [6], in experiment [7] and in [8] was over 100 µM each time.

As to `N#CCCN(C1=NN(C(=O)CC(=O)Nc2ccc(Cl)cc2)C(c2ccccc2)C1)c1ccc(Cl)cc1` (configuration not stated), the TGI in experiment [1], in experiment [2], in experiment [3], in [4], in [9] and in experiment [5] was over 100 µM in each case. In addition, the TGI in experiment [6], in experiment [7] and in experiment [8] was over 100 µM each time.

Consider `O=C(CCC(=O)Nc1ccc(Cl)cc1)CC(=O)c1ccc2ccccc2c1`, for which the TGI in experiment [1], in [2], in experiment [3], in experiment [4], in [9] and in experiment [5] was over 100 µM in each case. Moreover, the TGI in [6], in experiment [7] and in experiment [8] was over 100 µM each time.

As for `Cc1cc2nc3c(=O)[nH]c(=O)nc-3n(CC(O)C(O)C(O)CO)c2cc1N` (configuration not stated), the TGI in experiment [2], in [3], in experiment [4], in [9], in [6] and in experiment [7] was over 100 µM each time. The TGI in experiment [8] is over 100 µM.

Regarding `Cc1ccc2nc(Sc3c([N+](=O)[O-])ncn3C)[nH]c2c1`, the TGI in [1] is 83.9 µM; in [2], over 100 µM; in [3], over 100 µM; in [4], 78.7 µM; in [9] it was 45 µM; in experiment [5], 47.4 µM. Further, the values for the TGI in experiment [7] and in experiment [8] were 35.7 µM and over 100 µM, respectively.

`Cc1cc(Cl)ccc1NC(=O)CC1SC(=NC(=O)c2ccccc2Cl)NC1=O` (configuration not stated): the TGI in experiment [1] is 36.7 µM; in [3], 38.6 µM; in [4], 38.4 µM; in experiment [9], 75 µM; in experiment [5], 37.1 µM; in experiment [6], 8.66 µM. Also, the TGI in [7] was 71.2 µM; in experiment [8] it was over 100 µM.

With `O=C(CN(Cc1ccccc1)Cc1ccccc1)N1CCc2c([nH]c3ccccc23)C1c1cccnc1` (configuration not stated), the TGI was over 100 µM in [1]; 26.3 µM in [2]; 39.5 µM in experiment [3]; 4.53 µM in experiment [4]; 41.4 µM in [6]; 30.7 µM in [7]. The compound also had a TGI in experiment [8] of 89.9 µM.

For `O=C(O)CCC(=O)Oc1ccc(O)c2c1CCCC2=O`, the TGI in [1], in [2], in [3], in experiment [4], in [9] and in experiment [5] was over 100 µM throughout. Also, the TGI in experiment [6], in [7] and in experiment [8] was over 100 µM each time.

For `N#CC(C#N)=Cc1ccc(C(O)P(=O)(O)O)cc1` (configuration not stated), the TGI in [1], in [2], in [3], in experiment [4], in experiment [9] and in [5] was over 100 µM each time. The TGI in experiment [6], in experiment [7] and in [8] was over 100 µM each time.

As to `CC12CCCC(C#N)(C1)OC2=O` (configuration not stated), the TGI in experiment [1], in experiment [2], in experiment [9], in [5], in experiment [6] and in experiment [7] was over 100 µM each time. The TGI in [8] is over 100 µM.

As to `O=C1c2cccc([N+](=O)[O-])c2C(=O)c2nccnc21`, the TGI turned out to be 2.68 µM in experiment [3]; 7.92 µM in experiment [4]; 4.06 µM in experiment [9]; 3.04 µM in experiment [5]; 5.65 µM in experiment [6]; 2.62 µM in [7]. Besides, in experiment [8], the TGI turned out to be 2.79 µM.

With `O=C[C@]12CC=C3OC4OC5(CCCCC5)OC4[C@H]3[C@H]1C(=O)C=CC2=O` (some centres not stated), the TGI was 89 µM in [1]; over 100 µM in experiment [2]; over 100 µM in [9]; 34.4 µM in experiment [5]; 9.3 µM in experiment [6]; 52.6 µM in [7]. This compound registered a TGI in experiment [8] of 58.7 µM.

`CCOC(=O)NC(=O)c1cn(CCCCCCCCCCC(=O)NCCCN2CCN(CCCNC(=O)CCCCCCCCCCn3cc(C(=O)NC(=O)OCC)c(=O)[nH]c3=O)CC2)c(=O)[nH]c1=O`: the TGI in [1], in experiment [2], in experiment [3], in experiment [5], in [6] and in [7] was over 100 µM in each case. Besides, the TGI in experiment [8] was over 100 µM.

`CCC1=C[C@@H]2CN(C1)Cc1c([nH]c3ccccc13)[C@@](C(=O)OC)(c1cc3c(cc1OC)N(C)[C@H]1[C@@](O)(C(=O)OC)[C@H](OC(C)=O)[C@]4(CC)C=CCN5CC[C@]31[C@@H]54)C2`: the GI50 in [1] was under 0.01 µM; in [3], under 0.01 µM; in experiment [4], under 0.01 µM; in experiment [9] it was under 0.0302 µM; in [5], under 0.01 µM; in experiment [6], under 0.01 µM. The GI50 in experiment [7] and in [8] was under 0.01 µM throughout. Also, the TGI in [1] came out at 14.2 µM; in [3], 15.5 µM; in experiment [9] it was 36.5 µM; in experiment [5], 4.92 µM; in [6], 0.71 µM; in experiment [7] it was 18.6 µM. Besides, the TGI in experiment [8] amounted to 0.444 µM.

In the case of `O=CC1CCC=CC1NC(=O)OCc1ccccc1` (configuration not stated), the TGI in experiment [1], in [2], in experiment [3], in experiment [4], in experiment [9] and in [6] was over 100 µM throughout. Further, the TGI in experiment [7] and in [8] was over 100 µM in each case.

On to `Cn1nc(-c2ccccc2)c2c(/C=C/c3ccc(Cl)cc3)onc2c1=O`, for which the TGI in experiment [1] is over 100 µM; in experiment [3] it was 95.4 µM; in experiment [4] it was over 100 µM; in experiment [6], over 100 µM; in experiment [7], over 100 µM; in experiment [8], over 100 µM.
